From patent US11510926B2, “Pharmaceutical salts/co-crystals of pentoxifylline, clonidine and linsidomine with caffeic, protocatechuic or alpha-lipoic acid an use thereof for treatment of pain” (priority 2018, dated 2022)

How the values were obtained:
CPIP rat model of CRPS [1] = experiment: Mechanical sensitivity (paw withdrawal threshold, von Frey) after topical application to the ipsilateral hind paw of CPIP rats; assay type: in vivo; details: for maximum change in PWTs after topical application: dose response comparison, Lin-CafA has half of the linsidomine content
Description: Topical drugs were formulated into ointment-type preparation using a composite, water-soluble polyethylene glycol base system consisting of 40% carbowax (PEG 3350) and 60% PEG 400 (both from Sigma Aldrich). The required amounts of the active ingredients were first weighted out and then added to the already molten base and mixed well. The vehicle treatment consisted of the same water-miscible base ointment without the addition of the active drugs. The Chronic Post-ischemic Pain (CPIP) rat model of CRPS was prepared by inducing prolonged hind paw ischemia and subsequent reperfusion, as previously described by Coderre et. al., Pain, 112(1):94-105, 2004. In short, male Long Evans rats (300-400 g; Charles River, QC, Canada) were anesthetized over a 3-hour period with a bolus (55 mg/kg, intraperitoneally [i.p.]) followed by chronic i.p. infusion (0.15 mL/hour) of sodium pentobarbital (Ceva Sante Animale, Libourne, France) for 2 hours. Following induction of anesthesia, a Nitrile 70 Durometer O-ring (O-rings West, Seattle, Wash.) with an internal diameter of 5.5-mm was slipped around the rat's left hind limb proximal to the ankle joint to effect a complete blockade of arterial blood flow ([…] al., Mol Pain, 4:49, 2008). The ring was left in place for 3 hours, and the rats recovered from anesthesia 30 to 60 minutes following reperfusion. Mechanical Sensitivity Testing As a measure of mechanical sensitivity, paw withdrawal threshold (PWT), was tested on plantar surface of the ipsilateral hind paw of the CPIP rats. The rats were first habituated for 30 minutes in the testing chambers. Nylon monofilaments (von Frey hairs) with thickness designed to apply stimulus intensity ranging between 1 g and 15 g were applied to the plantar surface of the rats' hind-paw. The filaments were applied for 10 seconds or until flexion reflex occurred. PWTs were determined using Chaplan's up and down method after testing with the filaments in either ascending (after negative response) or descending (after positive response) order to find the correct response pattern which was later matched with its corresponding 50% threshold of paw withdrawal (Chaplan et al., J Neurosci Methods, 53:55-63, 1994). Time course measurements of PWTs after vehicle and drug administration were subjected to a repeated measure analysis of variance (ANOVA). Pairwise comparison was performed between PWTs obtained from drug and vehicle treatment groups measured at matching post-treatment times using Tukey's HSD test. Cumulative anti-allodynic effect measured over 180-minute time course experiments was assessed by calculating the area under the curve (AUC) of PWT elevations plotted post-topical application. Comparisons of different drug doses versus vehicle were performed using repeated measure ANOVA followed by Tukey's HSD test. Dose response curves for comparison of anti-allodynic potency were plotted on a semi-log scale with the amount of drug used per application on the X-axis and the AUC of the 180-minute PWT measured or change in PWT obtained post-drug application on the Y-axis. The linear regression of the dose-response curves was then calculated, and their difference analysed using a 1-way ANOVA. The synthesized salts/co-crystals of […], clonidine and […] were formulated into a polyethylene based topical ointment and their analgesic efficacy and potency tested and compared to their parent drugs on the CPIP rat model of CRPS.

CPIP rat model of CRPS [2] = experiment: Systemic absorption control: topical application to the uninjured contralateral paw, PWT of the injured CRPS paw; assay type: in vivo; details: concentration previously shown to relieve allodynia; PWT of injured paw at 30, 60, 120 and 180 minutes
Description: Mechanical Sensitivity Testing As a measure of mechanical sensitivity, paw withdrawal threshold (PWT), was tested on plantar surface of the ipsilateral hind paw of the CPIP rats. The rats were first habituated for 30 minutes in the testing chambers. Nylon monofilaments (von Frey hairs) with thickness designed to apply stimulus intensity ranging between 1 g and 15 g were applied to the plantar surface of the rats' hind-paw. The filaments were applied for 10 seconds or until flexion reflex occurred. PWTs were determined using Chaplan's up and down method after testing with the filaments in either ascending (after negative response) or descending (after positive response) order to find the correct response pattern which was later matched with its corresponding 50% threshold of paw withdrawal (Chaplan et al., J Neurosci Methods, 53:55-63, 1994).
To assess for any contribution systemic absorption might have to the anti-allodynic effects seen with the novel salts and co-crystals, we performed a control experiment using contralateral topical administration of the compounds. A topical preparation of the salts and co-crystals at a concentration proven to produce anti-allodynia, was applied to the uninjured contralateral paw of the CRPS rats and the effect this had on the PWT of the injured CRPS paw was measured at 30, 60, 120 and 180 minutes post topical application. The PWT obtained at 30, 60, 120 and 180 minutes post topical application were then compared with the values obtained after direct topical application on the injured CPRS paw.

## O=C(O)/C=C/c1ccc(O)c(O)c1 [CafA, caffeic acid, reference compound]
CPIP rat model of CRPS [1]; CafA alone, FIG. 9C
  anti-allodynic effects of topical administration on its own: no anti-allodynic effects
CPIP rat model of CRPS [1]; CafA alone, three concentrations corresponding to W/W levels in the Pntx-CafA co-crystal, n=10
  anti-allodynic effect upon topical application: no anti-allodynic effect

## Clc1cccc(Cl)c1NC1=NCCN1.O=C(O)CCCCC1CCSS1 [Clon-ALA, clonidine α-lipoate]
CPIP rat model of CRPS [2]
  anti-allodynic effects when applied to the contralateral (uninjured) paw: no anti-allodynic effects
CPIP rat model of CRPS [1]; 0.025% w/w, 30 minutes post-application
  rise in PWTs compared to vehicle: significant rise in PWTs
CPIP rat model of CRPS [1]; 0.05% w/w, compared to 0.025% (30 minutes)
  duration of elevated PWTs: stay significantly higher for twice as long
CPIP rat model of CRPS [1]; Clon-ALA compared to Clon-HCl
  increase in potency: ~2 ×
CPIP rat model of CRPS [1]; Clon-ALA compared to Clon-HCl, p=0.04
  leftward shift of x-intercept of the dose response curve: 0.265 log units
CPIP rat model of CRPS [1]; topical Clon-ALA, different doses, n=7
  relief of mechanical hypersensitivity: dose-dependently, relieves mechanical hypersensitivity

## Nc1c[n+](N2CCOCC2)no1.O=C([O-])/C=C/c1ccc(O)c(O)c1 [Lin-CafA, linsidomine caffeate]
CPIP rat model of CRPS [2]
  anti-allodynic effects when applied to the contralateral (uninjured) paw: no anti-allodynic effects
CPIP rat model of CRPS [1]; 1.6% w/w, 30, 60 and 120 minutes post-application
  elevation of PWTs compared to vehicle: significantly elevates PWTs to non-allodynic values
CPIP rat model of CRPS [1]; Lin-CafA compared to Lin-Cl
  increase in potency: ~2.5 fold
CPIP rat model of CRPS [1]; Lin-CafA compared to Lin-Cl, p=0.0026
  leftward shift of x-intercept of the dose response curve: 0.3966 log units
CPIP rat model of CRPS [1]; comparison of dose response curves
  efficacy and potency compared with linsidomine chloride: greater efficacy and potency
CPIP rat model of CRPS [1]
  maximum change in PWTs after topical application: 9.6±1.15
CPIP rat model of CRPS [1]; topical W/W 1.6% and 0.8%, for as long as 120 minutes post-application, n=9
  anti-allodynic effect compared to vehicle: significant anti-allodynic effect

## O=C(O)c1ccc(O)c(O)c1 [PCA, protocatechuic acid, reference compound]
CPIP rat model of CRPS [1]; PCA alone, topical, at the w/w doses contained in the Pntx-PCA co-crystal
  anti-allodynic effect compared to vehicle: does not produce significant anti-allodynic effects

## CC(=O)CCCCn1c(=O)c2c(ncn2C)n(C)c1=O.O=C(O)C=Cc1ccc(O)c(O)c1 [Pntx-CafA, pentoxifylline caffeate]
CPIP rat model of CRPS [1]; Pntx-CafA 2% W/W and 1% W/W compared to Pntx alone
  anti-allodynic potency in linear segment of dose-response curve: more potent anti-allodynic effect
CPIP rat model of CRPS [1]; topical 2% W/W, 60, 120 and 180 minutes post application, n=10
  elevation of PWTs compared to vehicle: significant and sustained elevation of PWTs
CPIP rat model of CRPS [1]; topical 4% W/W compared to 2% W/W
  anti-allodynic effect at higher dose: did not improve

## [NH-]c1c[n+](N2CCOCC2)no1 [linsidomine chloride, reference compound]
CPIP rat model of CRPS [1]
  maximum change in PWTs after topical application: 6.23±0.99

## pentoxifylline protocatechuate [Pntx-PCA]
CPIP rat model of CRPS [2]
  anti-allodynic effects when applied to the contralateral (uninjured) paw: no anti-allodynic effects
CPIP rat model of CRPS [1]; 2.5% W/W Pntx-PCA (1.5% Pntx and 1% PCA) compared to 3.5% Pntx and 2% PCA W/W
  cumulative 3-hour anti-allodynic effect: significantly exceeds the effect achieved by double the amount of its constituent drugs
CPIP rat model of CRPS [1]; Pntx-PCA compared to Pntx, from shift of log-dose response curve
  increase in potency: ~4 fold
CPIP rat model of CRPS [1]; Pntx-PCA compared to Pntx, p=0.0113
  leftward shift of the log-dose response curve: 0.59 log units
CPIP rat model of CRPS [1]; topical 5 and 10% W/W, ipsilateral hind paw, 30 to 60 minutes post-application, n=8
  anti-allodynic effect (PWT) compared to ointment base alone: significant anti-allodynic effects

## pentoxifylline-gallic acid [Pntx-GallA]
CPIP rat model of CRPS [1]; Pntx-GallA, CRPS rats, overall
  anti-allodynic effects of topical formulations: modest anti-allodynic effects
CPIP rat model of CRPS [1]; different doses, 3 hours of testing following topical application
  difference in change in PWT versus respective doses of Pntx: no significant measurable difference
CPIP rat model of CRPS [1]; observed at the only dose of 4% W/W, p<0.05
  improvement in PWT compared to vehicle: significant improvement in PWT
